Source: ChEMBL document CHEMBL2086273, “Significant activity of ecdysteroids on the resistance to doxorubicin in mammalian cancer cells expressing the human ABCB1 transporter” (J Med Chem, 2012)

Key:
[1] = molecular target: T1, ATP-dependent translocase ABCB1 (Homo sapiens, UniProt P08183); assay: Inhibition of human ABCB1 pump expressed in mouse L5178 cells assessed as fluorescence activity ratio at 20 uM for 10 mins by flow cytometry relative to control; format: cell-based; details: l5178, 10 min
T1 sequence (P08183 whole entry): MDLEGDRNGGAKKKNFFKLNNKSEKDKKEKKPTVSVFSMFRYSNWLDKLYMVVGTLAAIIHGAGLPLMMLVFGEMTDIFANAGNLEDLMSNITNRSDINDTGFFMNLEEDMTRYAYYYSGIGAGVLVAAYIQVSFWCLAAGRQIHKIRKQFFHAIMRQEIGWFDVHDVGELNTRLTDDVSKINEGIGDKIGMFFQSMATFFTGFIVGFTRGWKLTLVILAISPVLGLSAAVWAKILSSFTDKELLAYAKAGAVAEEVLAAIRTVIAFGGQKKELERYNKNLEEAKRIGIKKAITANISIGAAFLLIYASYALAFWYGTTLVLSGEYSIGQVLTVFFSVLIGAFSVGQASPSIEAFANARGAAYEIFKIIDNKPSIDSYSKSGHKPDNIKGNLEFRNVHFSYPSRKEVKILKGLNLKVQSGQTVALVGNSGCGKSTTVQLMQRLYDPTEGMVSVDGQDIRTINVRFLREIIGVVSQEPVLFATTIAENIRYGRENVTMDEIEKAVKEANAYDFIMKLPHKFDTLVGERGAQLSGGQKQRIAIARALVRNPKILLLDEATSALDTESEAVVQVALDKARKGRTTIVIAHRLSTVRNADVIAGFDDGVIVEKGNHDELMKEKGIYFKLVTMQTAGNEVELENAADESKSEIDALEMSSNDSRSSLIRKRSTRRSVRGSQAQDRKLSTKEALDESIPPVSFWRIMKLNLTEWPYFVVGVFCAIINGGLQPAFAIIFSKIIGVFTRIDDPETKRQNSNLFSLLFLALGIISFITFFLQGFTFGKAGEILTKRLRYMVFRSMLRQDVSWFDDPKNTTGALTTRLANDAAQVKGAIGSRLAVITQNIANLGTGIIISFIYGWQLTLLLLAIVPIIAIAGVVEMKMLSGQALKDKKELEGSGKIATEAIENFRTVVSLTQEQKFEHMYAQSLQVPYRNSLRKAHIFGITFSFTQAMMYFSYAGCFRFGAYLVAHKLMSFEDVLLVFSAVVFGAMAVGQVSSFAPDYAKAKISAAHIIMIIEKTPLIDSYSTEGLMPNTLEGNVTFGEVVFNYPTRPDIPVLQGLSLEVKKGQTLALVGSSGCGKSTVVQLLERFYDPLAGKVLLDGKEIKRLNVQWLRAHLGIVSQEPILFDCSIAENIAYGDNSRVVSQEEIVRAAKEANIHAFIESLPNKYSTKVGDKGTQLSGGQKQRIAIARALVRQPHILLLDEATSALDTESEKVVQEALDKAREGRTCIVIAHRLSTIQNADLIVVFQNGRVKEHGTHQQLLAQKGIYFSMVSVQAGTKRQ

[2] = molecular target: T1, ATP-dependent translocase ABCB1; assay: Inhibition of human ABCB1 expressed in mouse L5178 cells assessed as 75% inhibition of cell proliferation at compound-doxorubicin ratio of 81.5:1 after 48 hrs by MTT assay; format: cell-based; details: l5178, 48 h
[3] = Antiproliferative activity against multidrug-resistant mouse L5178 cells after 72 hrs by MTT assay; format: functional, cell-based; details: L5178, 72 h
[4] = molecular target: T1, ATP-dependent translocase ABCB1; assay: Inhibition of human ABCB1 expressed in mouse L5178 cells assessed as 50% inhibition of cell proliferation at compound-doxorubicin ratio of 81.5:1 after 48 hrs by MTT assay; format: cell-based; details: l5178, 48 h
[5] = molecular target: T1, ATP-dependent translocase ABCB1; assay: Inhibition of human ABCB1 expressed in mouse L5178 cells assessed as 95% inhibition of cell proliferation at compound-doxorubicin ratio of 81.5:1 after 48 hrs by MTT assay; format: cell-based; details: l5178, 48 h
[6] = system: Mus musculus; assay: Acute toxicity in CFLP mouse at 250 mg/kg, ip co-administered with […] doxorubicin after 48 hrs; format: organism-based; set-up: dose 250 mg/kg, route intraperitoneal; details: in vivo
[7] = molecular target: T1, ATP-dependent translocase ABCB1; assay: Inhibition of human ABCB1 expressed in mouse L5178 cells assessed as 95% inhibition of cell proliferation at compound-doxorubicin ratio of 20.4:1 after 48 hrs by MTT assay; format: cell-based; details: l5178, 48 h
[8] = molecular target: T1, ATP-dependent translocase ABCB1; assay: Inhibition of human ABCB1 expressed in mouse L5178 cells assessed as 75% inhibition of cell proliferation at compound-doxorubicin ratio of 20.4:1 after 48 hrs by MTT assay; format: cell-based; details: l5178, 48 h
[9] = Drug degradation of the compound in hydrochloric acid solution at pH 1.48 assessed as 20E 20,22-acetonide formation at 1 mg/ml; format: physicochemical; details: buffer
[10] = system: Mus musculus; assay: Acute toxicity in CFLP mouse at 250 mg/kg, ip administered as single dose; format: organism-based; set-up: dose 250 mg/kg, route intraperitoneal; details: in vivo
[11] = molecular target: T1, ATP-dependent translocase ABCB1; assay: Inhibition of human ABCB1 expressed in mouse L5178 cells assessed as 50% inhibition of cell proliferation at compound-doxorubicin ratio of 20.4:1 after 48 hrs by MTT assay; format: cell-based; details: l5178, 48 h
[12] = Half life of the compound in hydrochloric acid solution at pH 1.48 at 1 mg/ml; format: physicochemical
[13] = molecular target: T1, ATP-dependent translocase ABCB1; assay: Inhibition of human ABCB1 expressed in mouse L5178 cells assessed as 95% inhibition of cell proliferation at compound-doxorubicin ratio of 40.8:1 after 48 hrs by MTT assay; format: cell-based; details: l5178, 48 h
[14] = molecular target: T1, ATP-dependent translocase ABCB1; assay: Inhibition of human ABCB1 expressed in mouse L5178 cells assessed as 50% inhibition of cell proliferation at compound-doxorubicin ratio of 40.8:1 after 48 hrs by MTT assay; format: cell-based; details: l5178, 48 h
[15] = molecular target: T1, ATP-dependent translocase ABCB1; assay: Inhibition of human ABCB1 expressed in mouse L5178 cells assessed as 75% inhibition of cell proliferation at compound-doxorubicin ratio of 40.8:1 after 48 hrs by MTT assay; format: cell-based; details: l5178, 48 h

| Structure (SMILES) | Ratio [1] | IC50 [3] [µM] | fractional inhibitory concentration index (FICI) [13] | fractional inhibitory concentration index (FICI) [14] | fractional inhibitory concentration index (FICI) [15] | other results |
| --- | --- | --- | --- | --- | --- | --- |
| CC(C)(O)CC[C@@H](O)[C@](C)(O)[C@H]1CC[C@]2(O)C3=CC(=O)[C@@H]4C[C@@H](O)[C@@H](O)C[C@]4(C)[C@H]3CC[C@]12C | 1.03 | 30 | – | – | – | fractional inhibitory concentration index (FICI) [2]: 0.91; fractional inhibitory concentration index (FICI) [4]: 1.18; fractional inhibitory concentration index (FICI) [5]: 0.69 |
| CC(C)(O)CC[C@H]1OC(C)(C)O[C@]1(C)[C@H]1CC[C@@]2(O)C3=CC(=O)[C@@H]4C[C@H]5OC(C)(C)O[C@H]5C[C@]4(C)[C@H]3CC[C@]12C | 19.13 | – | – | – | – | Activity [6]: Non-toxic; fractional inhibitory concentration index (FICI) [7]: 0.073; fractional inhibitory concentration index (FICI) [8]: 0.14; Drug degradation [9]: Active; Activity [10]: Non-toxic; fractional inhibitory concentration index (FICI) [11]: 0.28; half-life at 1 mg/ml [12]: 7.3 min |
| CC(C)(O)CC[C@@H](O)[C@](C)(O)[C@H]1CC[C@@]2(O)C3=CC(=O)[C@@H]4C[C@H](O)[C@@H](O)C[C@]4(C)[C@H]3CC[C@]12C | 0.89 | 30 | – | – | – | fractional inhibitory concentration index (FICI) [2]: 0.45; fractional inhibitory concentration index (FICI) [4]: 1.16; fractional inhibitory concentration index (FICI) [5]: 0.22 |
| CC(O)(CO)CC[C@@H](O)[C@](C)(O)[C@H]1CC[C@@]2(O)C3=CC(=O)[C@]4(O)C[C@@H](O)[C@@H](O)C[C@]4(C)[C@H]3CC[C@]12C (some centres not stated) | 1.32 | 30 | – | – | – | fractional inhibitory concentration index (FICI) [2]: 0.47; fractional inhibitory concentration index (FICI) [4]: 2.24; fractional inhibitory concentration index (FICI) [5]: 0.12 |
| CCC1C[C@H]([C@](C)(O)[C@H]2CC[C@@]3(O)C4=CC(=O)[C@@H]5C[C@@H](O)[C@@H](O)C[C@]5(C)[C@H]4CC[C@]23C)OC(=O)C1C (some centres not stated) [CAPITASTERONE] | 0.63 | – | 0.49 | 1.35 | 0.74 | – |
| CC(=O)O[C@H]1C[C@]2(C)[C@H]3CC[C@]4(C)[C@@H]([C@@](C)(O)[C@@H](CCC(C)(C)O)OC(C)=O)CC[C@@]4(O)C3=CC(=O)[C@]2(O)C[C@H]1O | 0.84 | – | 0.6 | 1.22 | 0.86 | – |
| CC(=O)O[C@H]1C[C@@]2(C)[C@@H](C[C@H]1OC(C)=O)C(=O)C=C1[C@@H]2CC[C@]2(C)[C@@H]([C@@](C)(O)[C@@H](CCC(C)(C)O)OC(C)=O)CC[C@@]12O | 1.25 | – | 0.7 | 1.26 | 0.91 | – |
| CC[C@H](C[C@@H](O)[C@](C)(O)[C@H]1CC[C@@]2(O)C3=CC(=O)[C@@H]4C[C@@H](O)[C@@H](O)C[C@]4(C)[C@H]3CC[C@]12C)C(C)(C)O [MAKISTERONE C] | 0.66 | – | 0.2 | 0.98 | 0.42 | – |
| CC(C)(O)CC[C@@H](OC(=O)c1ccccc1)[C@](C)(O)[C@H]1CC[C@@]2(O)C3=CC(=O)[C@@H]4C[C@@H](O)[C@@H](O)C[C@]4(C)[C@H]3CC[C@]12C | 2.18 | – | 0.32 | 0.58 | 0.43 | – |
| CC(C)(O)CC[C@H]1OC(C)(C)O[C@]1(C)[C@H]1CC[C@@]2(O)C3=CC(=O)[C@@H]4C[C@@H](O)[C@@H](O)[C@@H](O)[C@]4(C)[C@H]3CC[C@]12C | 1.14 | – | 0.23 | 1.16 | 0.51 | – |
| CC(C)CC[C@H](O)[C@](C)(O)[C@H]1CC[C@@]2(O)C3=CC(=O)[C@@H]4C[C@@H](O)[C@@H](O)C[C@]4(C)[C@H]3[C@H](O)C[C@]12C [AJUGASTERONE C] | 1.13 | 30 | – | – | – | fractional inhibitory concentration index (FICI) [7]: 1.88; fractional inhibitory concentration index (FICI) [8]: 1.66; fractional inhibitory concentration index (FICI) [11]: 1.79 |
